Source: PubChem BioAssay AID652 (University of Pittsburgh Molecular Library Screening Center, 2007)
The source made the active and inactive calls. No rule for the calls is given here.

Target: Gag-Pol polyprotein (Human immunodeficiency virus type 1 group M subtype B (isolate HXB2)) (UniProt P04585)
Test: HIV-1 RT RNase H inhibitor potency, dose response, biochemical, probe assessment (AID 652)
Conditions: HIV-1 RT RNase H enzymatic assay

SMILES | IC50
O=C(Nc1nc(-c2ccncc2)cs1)C1COc2ccccc2O1 (centres undefined) | > 50 µM (inactive)
Cc1ccccc1N1C(=O)c2sc3nc4c(c(=O)n3c2C1=O)CCC4 | 2.37 µM
S=C(c1ccc(Cl)cc1)N1CCOCC1 | 4.01 µM
S=C(Nc1ccccn1)c1ccccn1 | 4.96 µM
CCOC(=O)N1CC=C2C(C#N)=C(N)C(C#N)(C#N)[C@H](c3ccc(OC(C)C)c(OCC)c3)[C@H]2C1 | 21.7 µM
O=c1/c(=C/c2ccccn2)sc2nc3ccccc3n12 | 14.6 µM
COC(=O)C1=C(C)N=c2s/c(=C3\C(=O)Nc4ccccc43)c(=O)n2C1c1ccccc1 (centres undefined) | 5.94 µM

Same assay, conditions: HIV-1 RT RNase H enzymatic assay, inhibition, at 50 µM, stronger effect = higher value

SMILES | inhibition [%]
COC(=O)N(c1ccccc1)P1(=S)OCCO1 | 81.9
Cc1cc(C)c(C#N)c(=N)o1 | 83
COC(=O)c1ccccc1S(=O)(=O)N(Cc1cc2cc3c(cc2[nH]c1=O)OCO3)C1CCCCC1 | 90.3
O=C(NCc1ccco1)c1cccnc1-c1nc2ccccc2s1 | 93.7
OCCN1CCN(C(=S)c2ccc(Cl)c(Cl)c2)CC1 | 76.6
COC(=O)c1ccccc1NC(=O)c1ccc2c(c1)C(=O)N(Cc1ccco1)C2=O | 93.3
CCc1ccccc1N1CSC2=C(C#N)C(c3cc(OC)c(OC)cc3OC)CC(=O)N2C1 (centres undefined) | 98.3
N#Cc1cc(-c2ccccc2)nn1-c1ccccc1 | 99.4
c1c2c(cc3sc(N4CCOCC4)nc13)OCO2 | 78.1
O=C(NCCc1ccccc1)c1c(O)c2cccc3c2n(c1=O)CC3 | 67.7
Nc1sc2c(c1C(=O)NC1CCS(=O)(=O)C1)CCC2 (centres undefined) | 74.5
CCOc1ccc(-n2c(=O)c3c4c(sc3n(CC(=O)NCc3ccco3)c2=O)CCC4)cc1 | 89.9
CN(c1ccccc1)c1ccc(/C=c2\s/c(=C(/C#N)C(=O)C(C)(C)C)n(Cc3ccco3)c2=O)cc1 | 92.9
O=C(Nc1nc(-c2ccncc2)cs1)C1COc2ccccc2O1 (centres undefined) | 92.5
Cc1ccc(Cn2c(SCC(C)C)nc3c2c(=O)[nH]c(=O)n3C)cc1 | 91.8
CCCN(CCC)S(=O)(=O)c1ccc(C(=O)Nc2nnc(-c3cccc(OC)c3)o2)cc1 | 87.4
COC(=O)c1cccc(N2C(=O)C(Cl)=C(N3CCOCC3)C2=O)c1 | 29.2
CCc1ccccc1N1CSC2=C(C#N)C(c3ccccc3F)CC(=O)N2C1 (centres undefined) | 98.5
Cc1cc(NC(=O)CSc2nc(C3CC3)nc3sc4c(c23)CCC(C)C4)no1 (centres undefined) | 94.1
CCN(Cc1ccccc1)S(=O)(=O)c1ccc(C(=O)Nc2nnc(-c3ccccc3OC)o2)cc1 | 95.8
COC(=O)c1ccc2c(c1)N(Cc1nc(-c3cccc(C)c3)oc1C)C(=O)C1CCCN21 (centres undefined) | 78.1

SMILES | inhibition [%]
Cn1ccnc1P(=S)(c1nccn1C)N1CCOCC1 | 60
CCOC(=O)Cc1csc(-n2sc3ccccc3c2=O)n1 | 96.4
COc1ccc(N2CSC3=C(C#N)C(c4ccc(OC)c(OC)c4)CC(=O)N3C2)c(OC)c1 (centres undefined) | 79.7
CCCc1cc(C(=O)Nc2sc3c(c2C#N)CCC3)no1 | 92.6
COc1ccc(-n2c(SCC(=O)N3CCCC3)nc3c([nH]c4ccccc43)c2=O)cc1 | 66.7
O=c1cc(CN2CCN(c3ccccc3)CC2)c2cc(O)c(-c3ccccc3)cc2o1 | 96.1
COc1ccc(N2CCN(Cc3cc(=O)oc4cc(C)c(Cl)c(C)c34)CC2)cc1 | 96
Cc1ccc(-n2c(N)c(C(=O)N3CCOCC3)sc2=S)cc1 | 75.9
COc1ccc(N2CSC3=C(C#N)C(c4cc(OC)ccc4OC)CC(=O)N3C2)c(OC)c1 (centres undefined) | 93.9
Cc1ccc(-n2sc3ccccc3c2=O)cc1S(=O)(=O)N1CCCCC1 | 96.9
COCCSc1ccccc1C(=O)Nc1cc(C)on1 | 65.1
O=c1[nH]c(=O)n(-c2ccc(F)cc2)c(O)c1C=Nc1ccccc1N1CCCC1 | 83.7
COC(=O)c1sc(N2C(=O)c3oc4ccccc4c(=O)c3C2c2cccs2)nc1C (centres undefined) | 95.8
COc1ccc2[nH]c(=O)c(CN(C3CCCCC3)C(c3nnnn3Cc3ccco3)C(C)C)cc2c1 (centres undefined) | 88.5
c1ccc(-n2ncc3c2ncn2nc(-c4ccco4)nc32)cc1 | 89.8
C=CCNC(=O)c1c(N)n(-c2ccc3c(c2)OCO3)c2nc3ccccc3nc12 | 55.2
CCCCCn1c(=O)c(C(=O)NCc2ccncc2)c(O)c2ccccc21 | 96
COc1cccc(OCC(=O)Nc2c(C(=O)Nc3ccc(OC)cc3OC)oc3ccccc23)c1 | 88.5
c1ccc(Cc2nn3c(COc4ccccc4)nnc3s2)cc1 | 86.8
Cc1cc(C)c(NC(=O)Cn2c(=O)n(Cc3ccco3)c(=O)c3ccccc32)c(C)c1 | 76.8
Cc1noc(C)c1CSc1nc2cc(S(=O)(=O)N3CCOCC3)ccc2o1 | 88.3

SMILES | inhibition [%]
CCCCCCNC(=O)c1c(N)n(/N=C/c2ccco2)c2nc3ccccc3nc12 | 98.3
COc1cccc(OC)c1-c1nn2c(-c3cc(-c4ccccc4)n[nH]3)nnc2s1 | 63.5
CCOC(=O)c1c(N)sn(-c2ccccc2C)c1=S | 83.4
Cc1ccc(-n2c(N)c(C(=O)N3CCCCC3)sc2=S)cc1 | 79.5
Cc1ccccc1N1C(=O)c2sc3nc4c(c(=O)n3c2C1=O)CCC4 | 98.7
CCOc1ccc(S(=O)(=O)Nc2cc(Sc3ncn[nH]3)c3oc(=O)sc3c2)cc1 | 94.6
O=S(=O)(c1ccc(S(=O)(=O)N2CCN(C/C=C/c3ccccc3)CC2)cc1)N1CCCC1 | 96.9
COc1ccc(CC(=O)Nc2ccc(-c3noc(-c4cccc(OC)c4)n3)cc2)cc1 | 85.5
CCOC(=O)c1sc(NC(=O)CSc2nnc(Cc3ccccc3)o2)c(C#N)c1C | 98.3
COC(=O)c1oc2ccc(Br)cc2c1NC(=O)c1ccccc1 | 94
Cc1ccccc1NC(=O)c1c(O)c2cccc3c2n(c1=O)CC3 | 84.6
CCC(C)Sc1nc2c(c(=O)[nH]c(=O)n2C)n1CC(O)COc1cccc2ccccc12 (centres undefined) | 95
CCOC(=O)C1=C(C)N=c2s/c(=C3\C(=O)Nc4ccccc43)c(=O)n2C1c1ccc2c(c1)OCO2 (centres undefined) | 83.8
CC(C)c1ccc2oc(-c3ccc(NC(=O)c4ncn[nH]4)cc3)nc2c1 | 92.7
CN(C)c1ccc2c(c1)N=C(c1ccco1)OP2(=S)N1CCOCC1 (centres undefined) | 92.9
CCOc1cc(C2CC(=O)N3CN(C4CCCCC4)CSC3=C2C#N)ccc1O (centres undefined) | 85.6
Cc1ccc(-c2cc(C(=O)NC3=NCCS3)c3cc(Br)ccc3n2)o1 | 92.4
CC1(C)Cc2[nH]c(=S)c(C#N)cc2CO1 | 71.1
COc1cc(OC)c(C2CC(=O)N3CN(C)CSC3=C2C#N)cc1OC (centres undefined) | 76.1
Cc1nn(CCC#N)c2c1P(=S)(N1CCCC1)OC(c1ccc(F)cc1)=N2 (centres undefined) | 90.2
COC(=O)c1ccccc1NC(=O)c1sc(=S)n(C)c1N | 101

SMILES | inhibition [%]
O=c1ccc2cc3c([nH]c4ccc(Br)cc43)oc-2c1O | 88.5
CCCc1nnc(NC(=O)CN2C(=O)c3ccccc3S2(=O)=O)s1 | 75.7
CCn1c(SCC(=O)c2ccc(O)c(O)c2)nnc1-c1ccccc1OC | 98.4
S=C(c1ccc(Cl)cc1)N1CCOCC1 | 73.5
O=C(NCc1ccco1)c1cc2cc3ccc(Cl)cc3nc2o1 | 91.6
CC(C)CNC(=O)c1c(N)n(/N=C/c2ccccn2)c2nc3ccccc3nc12 | 95
O=C(CCN1C(=O)c2ccccc2C1=O)Nc1ccc(-c2nc3ccccc3o2)cc1 | 92.1
CN1CCN(C(=O)c2sc(=S)n(-c3ccccc3)c2N)CC1 | 73.1
C=CCn1c(N)c(C(=O)NCCC2=CCCCC2)sc1=S | 85.9
CN(C)c1cccc(C(=O)Nc2cccc(F)c2)c1 | 72
S=C(Nc1ccccn1)c1ccccn1 | 85.8
CCOC(=O)N1CC=C2C(C#N)=C(N)C(C#N)(C#N)[C@H](c3ccc(OC(C)C)c(OCC)c3)[C@H]2C1 | 98.5
O=c1/c(=C/c2ccccn2)sc2nc3ccccc3n12 | 89.2
COc1ccc(CCNC(=O)c2c(O)c3cccc4c3n(c2=O)CC4)cc1 | 67.1
c1ccc2c(c1)nnn2Cc1nnc2sc(-c3ccc4c(c3)OCCO4)nn12 | 85.3
COC(=O)C1=C(C)N=c2s/c(=C3\C(=O)Nc4ccccc43)c(=O)n2C1c1ccccc1 (centres undefined) | 85.1
Cc1ccccc1NC(=O)CSc1nc2c(c(-c3ccco3)c1C#N)CCCC2 | 97.2
Cc1cccc(C)c1NC(=O)CSCC(=O)c1ccc(O)c(O)c1 | 94.7
CCCCCn1c(SCCCC)nc2c1c(=O)[nH]c(=O)n2C | 91.1
